Where a SMILES comes first, the peptide text is derived from it.
What was measured:
[1] = biological target: T1, CathepsinG, from human neutrophils (Homo sapiens, UniProt P08311); experiment: Enzymatic assay, cathepsin G; conditions: Cathepsin G IC50
T1 sequence (P08311 21-244): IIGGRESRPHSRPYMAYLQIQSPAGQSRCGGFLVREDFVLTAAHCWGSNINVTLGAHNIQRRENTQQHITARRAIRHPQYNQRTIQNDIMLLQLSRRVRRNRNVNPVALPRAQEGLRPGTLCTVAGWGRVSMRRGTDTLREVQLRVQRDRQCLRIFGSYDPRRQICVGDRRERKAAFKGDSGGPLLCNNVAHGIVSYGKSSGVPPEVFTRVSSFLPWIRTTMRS

[2] = biological target: T2, Elastase from human neutrophils (Homo sapiens, UniProt P08246); experiment: Enzymatic assay, elastase; conditions: Elastase IC50
T2 sequence (P08246 30-267): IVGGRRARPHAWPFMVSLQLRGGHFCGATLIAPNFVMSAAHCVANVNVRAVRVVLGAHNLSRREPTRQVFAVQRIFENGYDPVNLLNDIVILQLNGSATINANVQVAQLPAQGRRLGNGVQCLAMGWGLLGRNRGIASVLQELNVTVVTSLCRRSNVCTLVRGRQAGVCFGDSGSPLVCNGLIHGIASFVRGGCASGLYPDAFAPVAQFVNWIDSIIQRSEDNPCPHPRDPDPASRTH

Compound	IC50 [1]	IC50 [2]
CC[C@H](C)[C@@H]1NC(=O)[C@@H]2CCCN2C(=O)[C@@H]2CCCN2C(=O)[C@H](CC(=O)O)NC(=O)[C@H](CO)NC(=O)[C@H](CCCCN)NC(=O)[C@H]([C@@H](C)O)NC(=O)[C@@H]2CSSC[C@H](NC1=O)C(=O)N[C@@H](CC(N)=O)C(=O)N1CCC[C@@H]1C(=O)N1CCC[C@H]1C(=O)N[C@@H](CCc1ccccc1)C(=O)N2 [Ex. 27] (HELM PEPTIDE1{[O=C([C@H](CCc1ccccc1)N[*:1])[*:2]].C.T.K.S.D.P.P.I.C.N.[dP].P}$PEPTIDE1,PEPTIDE1,2:R3-10:R3|PEPTIDE1,PEPTIDE1,1:R1-13:R2$$$V2.0)	48 nM	–
CC[C@H](C)[C@@H]1NC(=O)[C@@H]2CCCN2C(=O)[C@@H]2CCCN2C(=O)[C@H](CC(=O)O)NC(=O)[C@H](CO)NC(=O)[C@H](CCCCN)NC(=O)[C@H]([C@@H](C)O)NC(=O)[C@@H]2CSSC[C@H](NC1=O)C(=O)N[C@@H](CC(=O)O)C(=O)N1CCC[C@@H]1C(=O)N1CCC[C@H]1C(=O)N[C@@H](CCc1ccccc1)C(=O)N2 [Ex. 29] (HELM PEPTIDE1{[O=C([C@H](CCc1ccccc1)N[*:1])[*:2]].C.T.K.S.D.P.P.I.C.D.[dP].P}$PEPTIDE1,PEPTIDE1,2:R3-10:R3|PEPTIDE1,PEPTIDE1,1:R1-13:R2$$$V2.0)	42 nM	–
CC[C@H](C)[C@@H]1NC(=O)[C@@H]2CCCN2C(=O)[C@@H]2CCCN2C(=O)[C@H](CC(=O)O)NC(=O)[C@H](CO)NC(=O)[C@H](CCCCN)NC(=O)[C@H]([C@@H](C)O)NC(=O)[C@@H]2CSSC[C@H](NC1=O)C(=O)N[C@@H](Cc1ccc(O)cc1)C(=O)N1CCC[C@@H]1C(=O)N1CCC[C@H]1C(=O)N[C@@H](Cc1ccc(N)cc1)C(=O)N2 [Ex. 32] (HELM PEPTIDE1{[Nc1ccc(C[C@H](N[*:1])C(=O)[*:2])cc1].C.T.K.S.D.P.P.I.C.Y.[dP].P}$PEPTIDE1,PEPTIDE1,2:R3-10:R3|PEPTIDE1,PEPTIDE1,1:R1-13:R2$$$V2.0)	52 nM	–
CC[C@H](C)[C@@H]1NC(=O)[C@@H]2CCCN2C(=O)[C@@H]2CCCN2C(=O)[C@H](CC(=O)O)NC(=O)[C@H](CO)NC(=O)[C@H](CCCCN)NC(=O)[C@H]([C@@H](C)O)NC(=O)[C@@H]2CSSC[C@H](NC1=O)C(=O)N[C@@H](CC(N)=O)C(=O)N1CCC[C@@H]1C(=O)N1CCC[C@H]1C(=O)N[C@@H](CC1CCCCC1)C(=O)N2 [Ex. 33] (HELM PEPTIDE1{[Cha].C.T.K.S.D.P.P.I.C.N.[dP].P}$PEPTIDE1,PEPTIDE1,2:R3-10:R3|PEPTIDE1,PEPTIDE1,1:R1-13:R2$$$V2.0)	45 nM	–
CC[C@H](C)[C@@H]1NC(=O)[C@@H]2CCCN2C(=O)[C@@H]2CCCN2C(=O)[C@H](CC(=O)O)NC(=O)[C@H](CO)NC(=O)[C@H](CCCCN)NC(=O)[C@H]([C@@H](C)O)NC(=O)[C@@H]2CSSC[C@H](NC1=O)C(=O)N[C@@H]([C@@H](C)O)C(=O)N1CCC[C@@H]1C(=O)N1CCC[C@H]1C(=O)N[C@@H](CC1CCCCC1)C(=O)N2 [Ex. 34] (HELM PEPTIDE1{[Cha].C.T.K.S.D.P.P.I.C.T.[dP].P}$PEPTIDE1,PEPTIDE1,2:R3-10:R3|PEPTIDE1,PEPTIDE1,1:R1-13:R2$$$V2.0)	56 nM	–
CC[C@H](C)[C@@H]1NC(=O)[C@@H]2CCCN2C(=O)[C@@H]2CCCN2C(=O)[C@H](CC(=O)O)NC(=O)[C@H](CO)NC(=O)[C@H](CCCCN)NC(=O)[C@H]([C@@H](C)O)NC(=O)[C@@H]2CSSC[C@H](NC1=O)C(=O)N[C@@H](CC(=O)O)C(=O)N1CCC[C@@H]1C(=O)N1CCC[C@H]1C(=O)N[C@@H](CC1CCCCC1)C(=O)N2 [Ex. 35] (HELM PEPTIDE1{[Cha].C.T.K.S.D.P.P.I.C.D.[dP].P}$PEPTIDE1,PEPTIDE1,2:R3-10:R3|PEPTIDE1,PEPTIDE1,1:R1-13:R2$$$V2.0)	54 nM	–
CCCCCCCC[C@@H]1NC(=O)[C@H](CCC(=O)O)NC(=O)[C@@H](CCCCN)NC(=O)[C@H](Cc2ccc(O)cc2)NC(=O)[C@@H]2CSSC[C@H](NC1=O)C(=O)N[C@@H]([C@@H](C)O)C(=O)N[C@@H](C)C(=O)N[C@@H](CO)C(=O)N[C@@H]([C@@H](C)CC)C(=O)N1CCC[C@H]1C(=O)N1CCC[C@H]1C(=O)N[C@@H](CCC(N)=O)C(=O)N2 [compound 165] (HELM PEPTIDE1{[CCCCCCCC[C@H](N[*:1])C(=O)[*:2]].C.T.A.S.I.P.P.Q.C.Y.[dK].E}$PEPTIDE1,PEPTIDE1,2:R3-10:R3|PEPTIDE1,PEPTIDE1,1:R1-13:R2$$$V2.0)	–	22 nM
CCCC[C@@H]1NC(=O)[C@H](CCC(N)=O)NC(=O)[C@H]2CCCN2C(=O)[C@H](Cc2ccc(O)cc2)NC(=O)[C@@H]2CSSC[C@H](NC1=O)C(=O)N[C@@H]([C@@H](C)O)C(=O)N[C@@H](C)C(=O)N[C@@H](CO)C(=O)N[C@@H](CC1CCCCC1)C(=O)N1CCC[C@H]1C(=O)N1CCC[C@H]1C(=O)N[C@@H](CCC(N)=O)C(=O)N2 [compound 170] (HELM PEPTIDE1{[Nle].C.T.A.S.[Cha].P.P.Q.C.Y.[dP].Q}$PEPTIDE1,PEPTIDE1,2:R3-10:R3|PEPTIDE1,PEPTIDE1,1:R1-13:R2$$$V2.0)	–	16 nM
CCCC[C@@H]1NC(=O)[C@H](CCC(N)=O)NC(=O)[C@H]2CCCN2C(=O)[C@H](CC2CCCCC2)NC(=O)[C@@H]2CSSC[C@H](NC1=O)C(=O)N[C@@H]([C@@H](C)O)C(=O)N[C@@H](C)C(=O)N[C@@H](CO)C(=O)N[C@@H](CC1CCCCC1)C(=O)N1CCC[C@H]1C(=O)N1CCC[C@H]1C(=O)N[C@@H](CCC(N)=O)C(=O)N2 [compound 172] (HELM PEPTIDE1{[Nle].C.T.A.S.[Cha].P.P.Q.C.[Cha].[dP].Q}$PEPTIDE1,PEPTIDE1,2:R3-10:R3|PEPTIDE1,PEPTIDE1,1:R1-13:R2$$$V2.0)	–	13 nM
CC[C@H](C)[C@@H]1NC(=O)[C@H](CO)NC(=O)[C@H](C)NC(=O)[C@H]([C@@H](C)O)NC(=O)[C@@H]2CSSC[C@H](NC(=O)[C@H](CCC(N)=O)NC(=O)[C@@H]3CCCN3C(=O)[C@@H]3CCCN3C1=O)C(=O)N[C@@H](Cc1ccc(O)cc1)C(=O)N1CCC[C@@H]1C(=O)N[C@@H](CCC(N)=O)C(=O)N[C@@H](CCc1ccccc1)C(=O)N2 [compound 173] (HELM PEPTIDE1{[O=C([C@H](CCc1ccccc1)N[*:1])[*:2]].C.T.A.S.I.P.P.Q.C.Y.[dP].Q}$PEPTIDE1,PEPTIDE1,2:R3-10:R3|PEPTIDE1,PEPTIDE1,1:R1-13:R2$$$V2.0)	–	12 nM
CCCC[C@@H]1NC(=O)[C@H](CCC(N)=O)NC(=O)[C@H]2CCCN2C(=O)[C@H](Cc2ccccc2Cl)NC(=O)[C@@H]2CSSC[C@H](NC1=O)C(=O)N[C@@H]([C@@H](C)O)C(=O)N[C@@H](C)C(=O)N[C@@H](CO)C(=O)N[C@@H](CC1CCCCC1)C(=O)N1CCC[C@H]1C(=O)N1CCC[C@H]1C(=O)N[C@@H](CCC(N)=O)C(=O)N2 [compound 175] (HELM PEPTIDE1{[Nle].C.T.A.S.[Cha].P.P.Q.C.[O=C([C@H](Cc1ccccc1Cl)N[*:1])[*:2]].[dP].Q}$PEPTIDE1,PEPTIDE1,2:R3-10:R3|PEPTIDE1,PEPTIDE1,1:R1-13:R2$$$V2.0)	–	12 nM
CCCCCCCC[C@@H]1NC(=O)[C@H](CCC(N)=O)NC(=O)[C@H]2CCCN2C(=O)[C@H](CCC(N)=O)NC(=O)[C@@H]2CSSC[C@H](NC1=O)C(=O)N[C@@H]([C@@H](C)O)C(=O)N[C@@H](C)C(=O)N[C@@H](CO)C(=O)N[C@@H](CCCCCCCC)C(=O)N1CCC[C@H]1C(=O)N1CCC[C@H]1C(=O)N[C@@H](CCC(N)=O)C(=O)N2 [compound 178] (HELM PEPTIDE1{[CCCCCCCC[C@H](N[*:1])C(=O)[*:2]].C.T.A.S.[CCCCCCCC[C@H](N[*:1])C(=O)[*:2]].P.P.Q.C.Q.[dP].Q}$PEPTIDE1,PEPTIDE1,2:R3-10:R3|PEPTIDE1,PEPTIDE1,1:R1-13:R2$$$V2.0)	–	6 nM
